Here are results for 2 compounds from patent publication US10676501B2, “Hydrogel materials incorporating eluting ceragenin compound” (BRIGHAM YOUNG UNIVERSITY, priority 2011, dated 2020).

As usually defined, the MIC is the lowest concentration that inhibits growth of the organism. A lower MIC goes with greater potency.

Series [1] can be described thus: Elution of CSA-138 from contact lenses without bacteria, quantified by scintillation counting. The class given is physicochemical. The method, then:
To decrease the detection limit for CSA-138, we prepared a radiolabeled version of CSA-138 (CSA-138T2), incorporated it into contact lenses, and quantified its elution from lenses using scintillation counting.
Lenses containing 1% CSA-138 were stored in 0.5 mL phosphate buffered saline (PBS) prior to testing. One set of lenses was autoclaved for 45 min before elution studies were performed. For elution studies, lenses were suspended in 2 ml aliquots of PBS, 10% TSB growth medium, 10% TSB growth medium containing 10^6 CFU of Staphylococcus aureus, or 10% TSB growth medium containing 10^6 CFU of Pseudomonas aeruginosa. Corresponding aliquots were exchanged every 24 h, including bacterial inocula. Samples were removed every 24 h and analyzed for the presence of CSA-138 using scintillation counting. A standard curve was generated to correlate counts per minute to concentration of CSA-138. All experiments were performed in triplicate.

The subject of series [2] is S. aureus. Nature of the series: MIC against S. aureus. The class given is cell-based.
The test system of series [3] is S. aureus. The conditions noted are these: elution from lenses, inocula 10^6 CFU, consecutive days; cited from earlier work.
For series [4], the system named is P. aeruginosa. Particulars: elution from lenses, inocula 10^6 CFU; cited from earlier work.
A short description of series [5]: Elution of CSA-138 from contact lens hydrogel, quantified by LC/MS. The class given is physicochemical. The conditions noted are these: lenses with CSA-138 incorporated at 1%; LC/MS detection limit about 2 μg/ml. On the procedure: To better understand the mechanism by which ceragenin compounds can be eluted from a hydrogel to prevent bacterial colonization, we determined the rate at which CSA-138 elutes from a hydrogel suitable for use in contact lenses. To quantify the amount of ceragenin eluting from the hydrogel, we used LC/MS using a mass-labeled internal standard. However, this method only gave detection limits of about 2 μg/ml, and we were able to effectively kill bacteria at constant elution rates below the detection limit.

In series [6] the test system is P. aeruginosa. Nature of the series: MIC against P. aeruginosa. It counts as cell-based.

≈ marks a conversion by molar mass, not a printed value.

`CCCCCCCCNCCC[C@@H](C)[C@H]1CC[C@H]2[C@@H]3[C@H](OCCCN)C[C@@H]4C[C@H](OCCCN)CC[C@]4(C)[C@H]3C[C@H](OCCCN)[C@]12C` [CSA-13]: the “elution profile in 10% TSB in PBS” value in series [1] (10% TSB in PBS, compared with PBS (FIG. 5)) was “elution decreased”.
Regarding `CCCCCCCCCCCCCNCCC[C@@H](C)[C@H]1CC[C@H]2[C@@H]3[C@H](OCCCN)C[C@@H]4C[C@H](OCCCN)CC[C@]4(C)[C@H]3C[C@H](OCCCN)[C@]12C` [CSA-138], the MIC was found to be 0.5 µg/mL (≈ 0.669 µM) in the series on S. aureus [2] and 1.0 µg/mL (≈ 1.34 µM) against P. aeruginosa [6]. Further, the “duration for which colonization is prevented” value with S. aureus [3] was 30 days; with P. aeruginosa [4] it was 19 days. In addition, the “initial amount of material that eluted” value in series [1] (lenses autoclaved 45 min before the study, compared with non-autoclaved (FIG. 4)) is recorded as “decreased somewhat”. Moreover, the “elution on the first day” value in series [1] (lenses containing 1% CSA-138 in 2 ml PBS, day 1 (FIG. 3)) is “about 2.2 μg/ml”. In addition, in series [5], the “time until elution fell below detection limits” value is “five”.
